Laboratory results published in article PMC12516686, “Design of 2‑Aminobenzothiazole Derivatives Targeting Trypanosomatid PTR1 by a Multidisciplinary Fragment Hybridization Approach” (Journal of Medicinal Chemistry, 2025).
Where two headings read alike, the source gives them in different places.

How the values were obtained:
[1] = test system: THP-1-derived macrophages; assay: Cytotoxicity assay (MTT) on THP-1-derived macrophages; format: cell-based, Human; details: cytotoxic concentration for THP1 cells
Experimental: Human leukemia cell line THP-1 (ATCC TIB202) cells were cultured in RPMI-1640 medium supplemented with 10% heat-inactivated fetal bovine serum (FBS), 2 mM L-glutamine, 100 IU/mL penicillin/streptomycin, and 20 mM HEPES. The cell line was maintained in a humidified incubator at 37 °C with 5% CO2. Subcultures were performed every 3 days in 20 mL of media at a concentration of 2 × 10^5 cells/mL in a T75 flask. All cell culture reagents were purchased from Lonza Bioscience (Morrisville, NC).
The cytotoxicity of the compounds on THP-1-derived macrophages was assessed using the colorimetric MTT assay (3-(4,5-dimethylthiazol-2-yl)-2,5-diphenyl tetrazolium bromide) as described elsewhere. THP-1 cells were suspended in RPMI complete medium at a density of 1 × 10^6 cells/mL, and 100 μL/well was seeded in a 96-well plate. The cells were differentiated into macrophages by adding 40 ng/mL of phorbol-myristate 13-acetate (PMA, Sigma, Saint Louis, MI, USA) for 24 h, followed by replacement with fresh medium for another 24 h. Subsequently, the cells were incubated with 100 μL of compounds, ranging from 100 to 12.5 μM, diluted in RPMI complete medium. Each condition was tested in triplicate. After 72 h of incubation at 37 °C with 5% CO2, the medium was removed, and 200 μL of 0.5 mg/mL MTT solution diluted in RPMI was added. The plates were incubated for an additional 4 h, after which 160 μL of the media was removed and replaced with 160 μL of 2-propanol. Absorbance was read at 570 nm using a Synergy 2 Multi-Mode Reader (Biotek, Winooski, VT, USA). Cytotoxicity was evaluated by presenting the CC50 (the concentration of the drug that reduces cell viability by 50%) interval or by determining the CC50 value through nonlinear regression analysis using GraphPad Prism version 8.1.1 for Windows (GraphPad Software, San Diego, CA, USA). Results represent the average of at least three independent experiments.

TbPTR1 [2] = target: T1, TbPTR1 (Trypanosoma brucei brucei, UniProt O76290); assay: TbPTR1 kinetic direct enzyme assay (NADPH consumption); format: biochemical; details: direct method of activity measurement, duplicate
T1 sequence (O76290 1-268): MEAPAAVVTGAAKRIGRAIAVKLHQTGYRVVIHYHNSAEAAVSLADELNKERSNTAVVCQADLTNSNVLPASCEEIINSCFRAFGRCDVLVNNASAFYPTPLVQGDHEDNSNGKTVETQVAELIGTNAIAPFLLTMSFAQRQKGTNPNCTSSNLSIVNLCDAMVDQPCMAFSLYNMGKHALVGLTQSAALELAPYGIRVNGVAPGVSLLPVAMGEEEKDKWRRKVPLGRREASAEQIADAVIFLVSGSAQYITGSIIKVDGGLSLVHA
Experimental: A direct kinetic assay was carried out to measure NADPH consumption over time using a Jasco V730 double-beam spectrophotometer. The assay was conducted as reported in ref . Thawed protein was incubated in 40 mM citrate buffer (pH 3.7) at a final concentration of 30 nM, along with the endogenous substrate at 27 μM. The reaction was carried out in a Kartell semimicro disposable polystyrene plastic cuvette (Kartell LABWARE, Milan, Italy). […] The maximum DMSO concentration was 2% in the assay solution. Each compound was tested in duplicate with a control assay without the inhibitor. The experiment was conducted 3 times. The reaction was initiated by adding NADP(H) to a final concentration of 134 μM in the cuvette, and the change in absorbance (ΔOD/min) at λ = 340 nm was monitored over 180 s at 25 °C with 27 μM. Six different concentrations were analyzed and fitted to a three-parameter logistical (3PL) model. A 95% confidence interval (CI) was used to calculate the standard error for each curve fitting, and a Student’s t test was performed for each duplicate with a significance threshold of p ≤ 0.05. Data fitting and statistical analysis were carried out using the GraphPad Prism Suite (2021).

[3] = test system: Trypanosoma brucei brucei L427 wild-type (WT) bloodstream forms; assay: Activity against T. brucei (resazurin-based assay); format: cell-based; details: at 10 μM
Experimental: The parasites were grown in 5 mL T25 ventilated flasks containing complete HMI-9 medium. The medium was supplemented with 10% heat-inactivated FBS and 100 IU/mL penicillin/streptomycin. To maintain the cultures, subpassages were performed every 2 days at a concentration of 1 × 10^4 cells/mL.
The efficacy of the compounds against Trypanosoma brucei brucei L427 wild-type (WT) bloodstream forms was assessed using a resazurin-based assay as described elsewhere. T. b. brucei L427 bloodstream forms were prepared at a cell density of 5 × 10^3 cells/mL in supplemented complete medium. Serial dilutions of the test compounds were prepared in a final volume of 100 μL, and 100 μL of the parasite suspension was added to each well containing the compound dilutions, resulting in a total volume of 200 μL per well. A dose–response curve for pentamidine was included as a quality control in each assay, and each condition was tested in duplicate. The plates were incubated for 72 h under the specified conditions for the parasite. After the incubation period, 20 μL of a 0.5 mM resazurin solution was added to each well, and the plates were incubated for an additional 4 h under the same conditions. Fluorescence was measured at an excitation wavelength of 544 nm and an emission wavelength of 590 nm using a Synergy 2 Multi-Mode Reader (Biotek, Winooski, VT, USA). The results were expressed as the percentage of parasite growth inhibition compared to the control (untreated parasites) and represented the average of at least three independent experiments.

[4] = test system: Trypanosoma brucei brucei L427 wild-type (WT) bloodstream forms; design: method as in PMID 30908048; details: cited from earlier work; for T. brucei % cell growth inhibition: at 10 μM ref 22; for EC50: read-out: T. brucei EC50
TbPTR1 [5] = target: T1, TbPTR1; design: method as in PMID 30908048; details: cited from earlier work; for IC50: reference compounds, SD within ± 10% ref 22; for TbPTR1 % enzyme inhibition: at 50 μM ref 22
[6] = test system: THP-1-derived macrophages; design: method as in PMID 30908048; details: cytotoxic concentration for THP1 cells ref 22; cited from earlier work
LmPTR1 = target: T2, LmPTR1 (Leishmania major, UniProt Q01782); design: method as in PMID 30908048; details: at 50 μM ref 22; cited from earlier work
T2 sequence (Q01782 1-288): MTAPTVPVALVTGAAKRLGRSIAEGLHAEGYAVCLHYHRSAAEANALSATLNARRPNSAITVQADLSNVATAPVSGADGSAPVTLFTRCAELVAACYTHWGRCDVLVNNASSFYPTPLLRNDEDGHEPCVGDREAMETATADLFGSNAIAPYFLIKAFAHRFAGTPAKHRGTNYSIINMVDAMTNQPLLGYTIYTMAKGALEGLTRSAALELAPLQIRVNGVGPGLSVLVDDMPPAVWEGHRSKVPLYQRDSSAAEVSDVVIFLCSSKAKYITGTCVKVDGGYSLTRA

[7] = test system: L. infantum intracellular amastigotes; design: method as in PMID 30908048; details: at 10 μM; intracellular amastigotes ref 22; cited from earlier work
[8] = target: the molecule itself; assay: crystal structure; hanging-drop vapour diffusion, crystals soaked with inhibitors; space group P2(1), asymmetric unit holds a functional TbPTR1 tetramer; ternary complexes with NADP(H) and 1a, 2b, 2c, 2d or 2e

With “2-amino-N-(3-(trifluoromethyl)phenethyl)benzo[d]thiazole-6-carboxamide [Compound 2g]” the CC50 [1] was > 100 µM, the IC50 (TbPTR1 [2]) was 7 µM and the “T. brucei % cell growth inhibition” value [3] was 31±7%.

For “2-amino-N-(4-(trifluoromethyl)phenethyl)benzo[d]thiazole-6-carboxamide [Compound 2f]”, the CC50 [1] was > 100 µM and the IC50 (TbPTR1 [2]) was 5.7 µM.

In the case of Nc1nc2ccc(SCc3ccc(Cl)c(Cl)c3)cc2s1 [III], the “T. brucei % cell growth inhibition” value [4] is listed as 46±1% and the IC50 (TbPTR1 [5]) is listed as 0.9 µM.

In the case of Nc1nc2ccc(OCc3ccc(Cl)c(Cl)c3)cc2s1 [II], the “T. brucei % cell growth inhibition” value [4] is given as 42±11%, the IC50 (TbPTR1 [5]) is given as 3.4 µM and the CC50 [6] is given as > 100 µM.

In the case of Nc1nc2ccc(S(=O)(=O)Cc3ccc(Cl)c(Cl)c3)cc2s1 [IV], the “LmPTR1 % enzyme inhibition” value (LmPTR1) is given as 26.9±1.8%, the “T. brucei % cell growth inhibition” value [4] is given as 37±11% and the “TbPTR1 % enzyme inhibition” value (TbPTR1 [5]) is given as 16.7±8.4%. The “L. infantum % cell growth inhibition” value [7] was 21±5%.

In the case of Nc1nc2c(O)cc(C(=O)NCc3ccc(Cl)c(Cl)c3)cc2s1 [VII], the “LmPTR1 % enzyme inhibition” value (LmPTR1) is given as 8.7±0.6%, the EC50 [4] is given as 5.9 µM and the “TbPTR1 % enzyme inhibition” value (TbPTR1 [5]) is given as 11.8±4.6%. For the same molecule, the “L. infantum % cell growth inhibition” value [7] was 24±15%.

For COc1ccc(CN(Cc2ccc(Cl)c(Cl)c2)C(=O)c2ccc3nc(N)sc3c2)cc1OC [VI], the EC50 [4] is listed as 9.7 µM and the IC50 (TbPTR1 [5]) is listed as 15.9 µM.

In the case of Nc1nc2ccc(C(=O)NCc3ccc(Cl)c(Cl)c3)cc2s1 [V], the IC50 (TbPTR1 [5]) is listed as 5.4 µM.

B1: Trypanosoma brucei pteridine reductase 1 (enzyme)
chain: T1 sequence (O76290 1-268)
modifications: Cys168 oxidized to S-oxycysteine (Csx168) in the crystal structures
notes: Pteridine reductase 1 (PTR1) of Trypanosoma brucei; Ala268 is called the C-terminus; also called TbPTR1; PTR1; source: E. coli BL21(DE3), purified (IMAC on HisTrap FF, SEC on Superdex 200)
With B1 the “stoichiometry N” value [8] was 4.
